In patent US20210116454A1, “METHODS FOR TREATING A HEMATOLOGICAL CANCER AND THE USE OF COMPANION BIOMARKERS FOR 2-(2,6-DIOXOPIPERIDIN-3-YL)-4-((2-FLUORO-4-((3-MORPHOLINOAZETIDIN-1-YL)METHYL)BENZYL)AMINO)ISOINDOLINE-1,3-DIONE” (CELGENE CORPORATION, priority 2019, published 2021):

Tests used:
11 DLBCL cell lines = test: Integrated proteomics (TMT-MS) and RNA-Seq profiling; assay type: cell-based; conditions: 0.04 μM; 12, 24 and 48 hours
Procedure: Biomarkers associated with the cytotoxic effects of Compound 1 treatment in DLBCL, such as signaling and regulatory pathways, were determined by integrative network analysis using transcriptomic and proteomic profiling. The approach consisted of a network flow optimization using a knowledge driven backbone network with protein interactions and regulatory associations similar to what was described previously (Basha, Mauer, Simonovsky, Shpringer, & Yeger-Lotem, 2019; Gosline, Spencer, Ursu, & Fraenkel, 2012).
Briefly, differential expression analysis and differential protein abundance analysis at different timepoints were integrated using a model framework. […]
To begin, cell line sensitivity to Compound 1 was determined by flow cytometry for 40 cell line models using DRAQ7 and Annexin V staining to quantify the reduction in proliferation and induction of apoptosis after five days of compound treatment. […] Sensitivity was calculated by calculating the ratio of (AUCapoptosis/AUClive cells), where smaller ratios indicated resistance, and larger ratios indicated sensitivity. […]

[1] = test system: bone marrow CD34+ cells from healthy donors; test: Ex vivo maturation of myeloid progenitors to neutrophils (flow cytometry); assay type: cell-based
Procedure: The effects of Compound 1 on maturation of myeloid progenitors to neutrophils were assessed in ex vivo cultures of bone marrow CD34+ cells from healthy donors and different dosing schedules were evaluated to gain insight into the schedule dependence of these events.
Myeloid differentiation was induced by adding stem cell factor (SCF), FMS-related tyrosine kinase 3 ligand (FLT3-L), and granulocyte colony stimulating factor (G-CSF) to culture media. Cell differentiation in the presence or absence of Compound 1 was evaluated at prespecified time points by flow cytometry as the percentage of cells in 5 subpopulations: (1) hematopoietic stem cells (HSC, CD34+/CD33−/CD11b−); (2) Stage I cells (CD34+/CD33+/CD11b−); (3) Stage II cells (CD34−/CD33+/CD11b−); (4) Stage III cells (CD34−/CD33+/CD11b+) and (5) Stage IV cells (CD34−/CD33−/CD11b+) cells (from immature to mature). Differentiation and viability were monitored during the complete assay every two or three days.
However, the viability of neutrophil precursors exposed to Compound 1 was not affected (FIG. 18).
Recovery of mature neutrophils after Compound 1 exposure was also evaluated in the system.

O=C1CC[C@H](N2C(=O)c3cccc(NCc4ccc(CN5CC(N6CCOCC6)C5)cc4F)c3C2=O)C(=O)N1 [Compound 1, (S)-2-(2,6-dioxopiperidin-3-yl)-4-((2-fluoro-4-((3-morpholinoazetidin-1-yl)methyl)benzyl)amino)isoindoline-1,3-dione]
genes associated with cell cycle and transcription (11 DLBCL cell lines): global down-regulation
genes associated with interferon signaling, cytokine/chemokine signaling, apoptosis, cell adhesion, cell-cell junction, GPCRs, extracellular matrix (11 DLBCL cell lines): up-regulation
late-stage maturation of neutrophil progenitors ([1]; 14 or 5 days of exposure): blocked
Number of Days in Washout Period Required for Recovery to 50% of Stage IV Cells ([1]; 5 days treatment, 0.1 nM): 0 days
Number of Days in Washout Period Required for Recovery to 50% of Stage IV Cells ([1]; 5 days treatment, 1 nM): 1 days
Number of Days in Washout Period Required for Recovery to 50% of Stage IV Cells ([1]; 5 days treatment, 10 nM): 1 days
Number of Days in Washout Period Required for Recovery to 50% of Stage IV Cells ([1]; 5 days treatment, 1000 nM): 5 days
Number of Days in Washout Period Required for Recovery to 50% of Stage IV Cells ([1]; 14 days treatment, 0.1 nM): 0 days
Number of Days in Washout Period Required for Recovery to 50% of Stage IV Cells ([1]; 14 days treatment, 1 nM): 0 days
Number of Days in Washout Period Required for Recovery to 50% of Stage IV Cells ([1]; 14 days treatment, 100 nM): 4 days
Number of Days in Washout Period Required for Recovery to 50% of Stage IV Cells ([1]; 14 days treatment, 1000 nM): 4 days
viability of neutrophil precursors ([1]; Annexin V and 7-AAD, 14 or 5 days exposure): not affected
recovery of the proportion of mature neutrophils (Stage IV cells) from its nadir ([1]; after 1 week without Compound 1): ≥ 50%
recovery of Stage IV cells relative to Stage IV cell population in the DMSO control ([1]; one week without drug, all tested conditions): at least 50%
